Counter-ions that a name gives are not always drawn. Like-named read-outs stand apart in the source and are kept apart here.
Assays:
B. licheniformis = test: Broth microdilution MIC/MBC, B. licheniformis; format: cell-based; conditions: Bacillus licheniformis
[1] = tested on: vancomycin resistant enterococci (VRE) E. faecium; test: Broth microdilution MIC/MBC, VRE E. faecium; format: cell-based
MRSA USA300 = test: MIC against MRSA USA300 with and without 4% human serum albumin; format: cell-based, Staphylococcus aureus; conditions: Staphylococcus aureus, read-out: MIC against MRSA USA300
Method: The minimum inhibitory concentration (MIC) and the minimum bactericidal concentration (MBC) of rhodanine compounds 1 to 7 were determined against various Gram-positive and Gram-negative pathogens (S1 Table) following the guidelines of the Clinical and Laboratory Standards Institute (CLSI)[4]. The broth microdilution technique was used, followed by subculturing on agar plates that were rhodanine—free. […] The MICs reported represent the lowest concentration of each compound necessary to inhibit bacterial growth and the MBCs represent the lowest concentration required to reduce the initial bacterial inoculum by ≥ 99.9%.
The antimicrobial activity of rhodanine compounds in the presence of 4% human serum albumin (HSA) was tested against MRSA USA300. The MICs of rhodanine compounds and control antibiotics (vancomycin and daptomycin) were tested as described in the methods above using tryptic soy broth spiked with 4% HSA. We also synthesized and tested three more compounds, ethyl ester and amide of rhodanine 2 (Rh 8 and Rh 10, respectively) and ethyl ester of rhodanine 3 (Rh 9) to determine the influence of a carboxyl group modification toward anti-MRSA activity and human serum albumin (HSA) binding.

[2] = tested on: Vancomycin Resistant Staphylococcus aureus (VRSA); test: Broth microdilution MIC/MBC, VRSA; format: cell-based; conditions: VRSA
Mycobacterium smegmatis = test: Broth microdilution MIC/MBC, Mycobacterium smegmatis; format: cell-based; conditions: Mycolicibacterium smegmatis, ATCC14468
Clostridium difficile = test: MIC against Clostridium difficile, anaerobic broth dilution; format: cell-based; conditions: Clostridioides difficile
Method: Clinical isolates of C. difficile were cultured on anaerobic blood agar and incubated anaerobically using container gas pack system at 37° C for 48 hours. The colonies were then suspended in pre-reduced phosphate buffered saline (PBS) and adjusted to 0.5 McFarland standard then diluted 1:300 in pre-reduced Supplemented Brain Heart Infusion broth. The bacterial suspension was then transferred to each well of 96-well plates, the drugs were added to the first row of wells in the required concentrations and serially diluted along the plates. The plates were incubated again anaerobically using container gas pack system at 37° C for 48 hours. The (MIC) recorded was the lowest concentration of the drug showing no visible growth of the bacteria.

[3] = tested on: vancomycin resistant enterococci (VRE) E. faecalis; test: Broth microdilution MIC/MBC, VRE E. faecalis; format: cell-based
Bacillus Strains = test: Broth microdilution MIC50/MIC90 and MIC range, Bacillus strains panel; format: cell-based, Bacillus spp.; conditions: 10 Bacillus strains
Source text: The broth microdilution technique was used, followed by subculturing on agar plates that were rhodanine—free. […] The MICs reported represent the lowest concentration of each compound necessary to inhibit bacterial growth and the MBCs represent the lowest concentration required to reduce the initial bacterial inoculum by ≥ 99.9%.

[4] = tested on: established methicillin-resistant S. epidermidis biofilm (ATCC 35984, NRS 101); test: Microtiter dish biofilm eradication assay (crystal violet); format: cell-based, Staphylococcus epidermidis; conditions: high concentrations (up to 8 X MIC), 24 h
Method: We used S. epidermidis ATCC 35984 (NRS 101), a high-slime producer isolated in septicemic patients, with colonized intravascular catheters from Tennessee, USA [10]. This strain is a multi-drug resistant strain, showing resistance to methicillin, erythromycin, kanamycin, gentamicin, clindamycin and trimethoprim. Briefly, an overnight culture of biofilm—producing MRSE was diluted 1:100 in a fresh medium containing 1% glucose in a 96-well tissue-culture treated plate. Bacteria were incubated at 37°C for 24 h to permit the formation of an adherent biofilm. The medium was removed and the biofilm was washed with PBS. Antibacterial drugs (vancomycin and linezolid) and rhodanine 2, at indicated concentration, were added and incubated again at 37°C for 24 h. Plates were washed again and biofilms were stained with 0.1% (wt/vol) crystal violet. Plates were washed with PBS, air-dried and biofilm mass was dissolved using 95% ethanol. The intensity of crystal violet was measured using a micro plate reader (SpectraMax i3x; Molecular Devices, Sunnyvale, CA, USA). Data are presented as the percent biofilm mass reduction in treated groups in relation to untreated wells.

B. cereus = test: Broth microdilution MIC/MBC, B. cereus; format: cell-based
Source text: The broth microdilution technique was used, followed by subculturing on agar plates that were rhodanine—free.

[5] = tested on: vancomycin resistant enterococci (VRE); test: Broth microdilution MIC50/MIC90, VRE panel; format: cell-based; conditions: Enterococcus, VRE

CN[C@H](CC(C)C)C(=O)N[C@H]1C(=O)N[C@@H](CC(N)=O)C(=O)N[C@H]2C(=O)N[C@H]3C(=O)N[C@H](C(=O)N[C@H](C(=O)O)c4cc(O)cc(O)c4-c4cc3ccc4O)[C@H](O)c3ccc(c(Cl)c3)Oc3cc2cc(c3O[C@@H]2O[C@H](CO)[C@@H](O)[C@H](O)[C@H]2O[C@H]2C[C@](C)(N)[C@H](O)[C@H](C)O2)Oc2ccc(cc2Cl)[C@H]1O [Vancomycin, vancomycin hydrochloride, reference compound] was tested, and the MBC (B. licheniformis; NCIB9375) was 2 µM, the MIC (B. licheniformis; NCIB9375) was < 0.5 µM and the MBC (B. licheniformis; NRS712) was < 0.5 µM. For the same compound, the MIC (B. licheniformis; NRS712) was < 0.5 µM, the MIC [1] was > 64 µM and the MIC ([1]; E. faecium E417 HM-965) was > 64/— μM. The MIC ([1]; E. faecium E1071 NR-28978) was > 64/— μM, the MIC ([1]; E. faecium HM 968 Strain ERV102) was > 64/— μM and the MIC ([1]; E. faecium NR31914 Strain E0120) was > 64/— μM. The MIC (MRSA USA300) was 0.5 µM, the MBC [2] was > 64 µM and the MIC50 [2] was > 64 µM. For the same compound, the MIC90 [2] was > 64 µM, the MIC ([2]; VRSA 1) was > 64 µM and the MIC ([2]; VRSA 2) was > 16 µM. The MIC ([2]; VRSA 3a) was > 16 µM, the MIC ([2]; VRSA 3b) was > 16 µM and the MIC ([2]; VRSA 4) was > 64 µM. For the same compound, the MIC ([2]; VRSA 5) was 64 µM, the MIC ([2]; VRSA 6) was > 64 µM and the MIC ([2]; VRSA 7) was > 64 µM. For the same compound, the MIC ([2]; VRSA 8) was > 64 µM, the MIC ([2]; VRSA 9) was > 64 µM and the MIC ([2]; VRSA 10) was > 64 µM. The MIC ([2]; VRSA 11a) was > 64 µM, the MIC ([2]; VRSA 11b) was > 64 µM and the MIC ([2]; VRSA 12) was > 64 µM. The MIC ([2]; VRSA 13) was > 64 µM, the MBC (Mycobacterium smegmatis) was 16 µM and the MIC (Mycobacterium smegmatis) was 2 µM. The MIC (Clostridium difficile; C. difficile HM-88) was 0.5 µM, the MIC (Clostridium difficile; C. difficile HM-745) was 0.125 µM and the MIC (Clostridium difficile; C. difficile HM-746) was 0.25 µM. For the same compound, the MIC (Clostridium difficile; C. difficile Isolate-1 NR-13427) was 1 µM, the MIC (Clostridium difficile; C. difficile Toxigenic Strain P8 NR-32888) was 0.5 µM and the MIC [3] was > 64 µM. For the same compound, the MIC ([3]; E. faecalis ERV103 HM-934) was > 64/— μM, the MIC ([3]; E. faecalis NR31972 Strain SF 28073) was > 64/— μM and the MIC ([3]; E. faecalis S613 HM-334) was > 64/— μM. For the same compound, the MIC ([3]; E. faecalis TX0104 HM-201) was > 64/— μM, the MIC50 (Bacillus Strains) was < 0.5 µM and the MIC90 (Bacillus Strains) was < 0.5 µM. The biofilm mass reduction [4] was “not significantly decreased”, the MBC (B. cereus; B. cereus BAG1O-2 NR-28582) was < 0.5/< 0.5 μM and the MIC (B. cereus; B. cereus BAG1O-2 NR-28582) was < 0.5/< 0.5 μM. For the same compound, the MBC (B. cereus; B. cereus BAG1X1-1 NR-28575) was < 0.5/< 0.5 μM, the MIC (B. cereus; B. cereus BAG1X1-1 NR-28575) was < 0.5/< 0.5 μM and the MBC (B. cereus; B. cereus G9241 NR-9564) was < 0.5/< 0.5 μM. The MIC (B. cereus; B. cereus G9241 NR-9564) was < 0.5/< 0.5 μM, the MBC (B. cereus; B. cereus VD014 NR-22141) was < 0.5/< 0.5 μM and the MIC (B. cereus; B. cereus VD014 NR-22141) was < 0.5/< 0.5 μM. For the same compound, the MBC (B. cereus; B. cereus VD115 NR-22148) was < 0.5/< 0.5 μM, the MIC (B. cereus; B. cereus VD115 NR-22148) was < 0.5/< 0.5 μM and the MBC (B. cereus; B. cereus VD148 NR-22150) was < 0.5/< 0.5 μM. The MIC (B. cereus; B. cereus VD148 NR-22150) was < 0.5/< 0.5 μM, the MBC (B. cereus; Bacillus cereus, B. cereus BAG1X2-1 NR-28578, read-out: MBC) was < 0.5 µM and the MIC (B. cereus; Bacillus cereus, B. cereus BAG1X2-1 NR-28578, read-out: MIC) was < 0.5 µM. For the same compound, the MBC (B. cereus; Bacillus cereus, NRS201, B. cereus NRS 201 NR-2488, read-out: MBC) was < 0.5 µM, the MIC (B. cereus; Bacillus cereus, NRS201, B. cereus NRS 201 NR-2488, read-out: MIC) was < 0.5 µM and the MIC50 [5] was > 64 µM. The MIC90 [5] was > 64 µM.

Source: article PMC5053523, “In Vitro Antibacterial Activity of Rhodanine Derivatives against Pathogenic Clinical Isolates” (PLoS ONE, 2016)
